Laboratory results taken from US9688651B2, “Geranyl geranyl acetone analogs and uses thereof” (NYKEN Holding B.V., priority 2012, dated 2017).

Experiments:
[1] = test system: MCF-7 breast cancer cells; assay: MCF-7 cell death, ratio death/living cells (trypan blue); format: cell-based, human; set-up: key to Cell Death MCF-7 cancer cells Death/living 100 μM: 0 = no dead cells; + = P < 0.05; ++ = P < 0.01; +++ = P < 0.001; conditions: 100 μM; 16-20 hours; trypan blue
Protocol: MCF-7 breast cancer cells were cultured in DMEM supplemented with 10% FCS. […] Ratio death and living cells was determined by using trypan blue staining of death cells. The cell pellets were lysed in RIPA buffer and used for Western blot analysis.
Since we observed that some compounds aggravate tachypacing-induced contractile dysfunction, we next investigated if these compounds can induce programmed cell death in a human breast cancer cell-line MCF-7. […] In total 28 compounds were tested for cell death. […] GGA was used as a control as well as non-treated MCF-7 cells. […] The findings indicate that GGA-like compounds which aggravate heart failure can induce programmed cell death in MCF-7 breast cancer cell-line.

[2] = test system: HSP70; assay: HSP70 Western blot in MCF-7 cells; format: cell-based, human; set-up: key: + = P < 0.05; ++ = P < 0.01; +++ = P < 0.001; conditions: MCF-7 lysate, 16-20 hours
Protocol: (§1) MCF-7 breast cancer cells were cultured in DMEM supplemented with 10% FCS. Test compounds were added to the medium in a final concentration of […] for 16-20 hours. Ratio death and living cells was determined by using trypan blue staining of death cells. The cell pellets were lysed in RIPA buffer and used for Western blot analysis.
(§2) Western-blot analysis was performed as described previously^3, 10. Equal amount of protein in SDS-PAGE sample buffer was sonicated before separation on 10% PAA-SDS gels. After transfer to nitrocellulose membranes (Stratagene, The Netherlands), membranes were incubated with primary antibodies against HSP25 (Stressgen, The Netherlands, SPA-801, 1:1000), HSP27 (Stressgen, SPA-800, 1:1000), HSP70 (Stressgen, SPA-810, 1:1000), GAPDH (Affinity Reagents, The Netherlands) or PARP (Santa Cruz, The Netherlands, sc-7150, 1:500). Horseradish peroxidase-conjugated anti-mouse or anti-rabbit (Santa-Cruz Biotechnology, The Netherlands) was used as secondary antibody. Signals were detected by the ECL-detection method (Amersham, The Netherlands) and quantified by densitometry using GeneTools software from Syngene (The Netherlands).

[3] = test system: HSP70; assay: Hsp70 induction in murine proximal tubule (MPT) cells (Western blot); format: cell-based; conditions: 40 μM, 5 hours, outperformed positive control GGA
Protocol: Murine proximal tubule (MPT) cells were isolated and cultured as described previously (Borkan et al. Heat stress ameliorates ATP depletion-induced sublethal injury in mouse proximal tubule cells. Am. J. Physiol. 1997; F347-55).
The MPT cells were exposed to 40 μM of compound for 5 hours, after which the cells were harvested in RIPA buffer followed by Western blotting.
For Western-blot analysis, equal amount of protein in SDS-PAGE sample buffer was separated on 10% PAA-SDS gels. After transfer to nitrocellulose membranes (Stratagene, USA), membranes were incubated with primary antibodies against HSP70 (Enzo C92F3A/StressGen SP810) or beta-actin (Sigma A541). Horseradish peroxidase-conjugated anti-mouse or anti-sheep (Jackson ImmunoRes) was used as secondary antibody. Signals were detected by the ECL-detection method (Amersham).

[4] = test system: HSP27; assay: HSP27 Western blot in MCF-7 cells; format: cell-based, human; set-up: key: + = P < 0.05; ++ = P < 0.01; +++ = P < 0.001; conditions: MCF-7 lysate, 16-20 hours
Protocol: as §1, §2

[5] = test system: HSP70; assay: HSP70 protein boosting in HL-1 cardiomyocytes after mild heat shock (Western blot); format: cell-based, mouse; set-up: key to HSP boosting HL-1 cardiomyocytes Protein HSP70: 0 = no induction HSP levels; + = 2-10-fold induction; ++ = 10-30-fold induction; +++ = > 30-fold induction; conditions: for HSP boosting HL-1 cardiomyocytes Protein HSP70: mild heat shock 44°C 10 min, then compound 10 μM for 6 hours, Western blot; for induction of mammalian HSP70 protein expression: HL-1, mild heat shock, 10 μM, 6 hours
Protocol: HL-1 atrial myocytes, a cell line derived from adult mouse atria were obtained from Dr. William Claycomb (Louisiana State University, New Orleans, La., USA). The myocytes were maintained in Complete Claycomb Medium (JRH, UK) supplemented with 100 μM norepinephrine stock (consisting of 10 mM norepinephrine (Sigma, The Netherlands) dissolved in 0.3 mM L-ascorbic acid (Sigma)), 4 mM L-glutamine (Gibco, The Netherlands) and 10% FBS (Sigma). The myocytes were cultured in flasks coated with 0.02% gelatin (Sigma), in a 5% CO2 atmosphere at 37° C.
HL-1 cardiomyocytes were subjected to a mild heat shock of 44° C. for 10 minutes. After a recovery of 10 minutes (37 degrees 5% CO2), compounds were added in a final concentration of 10 μM (dissolved in DMSO, final concentration 0.1%). To control myocytes, 0.1% DMSO was added. After six hours the cells were lysed in RIPA buffer and used for Western blotting as described previously.^3, 10
as §2
Compounds were also screened for HSP70 boosting effects. Hereto, HL-1 cardiomyocytes were first subjected to a mild heat shock which activates the Heat Shock Factor. After the mild heat shock, compound (10 μM) was added to the medium of HL-1 cardiomyocytes for 6 hours, followed by determination of the HSP70 amount.

[6] = test system: PARP; assay: PARP cleavage in MCF-7 cells (Western blot); format: cell-based, human; set-up: key to Cell Death MCF-7 cancer cells PARP: 0 = no dead cells; + = P < 0.05; ++ = P < 0.01; +++ = P < 0.001; conditions: MCF-7 lysate, Western blot, 16-20 hours
Protocol: as §1, §2
Since we observed that some compounds aggravate tachypacing-induced contractile dysfunction, we next investigated if these compounds can induce programmed cell death in a human breast cancer cell-line MCF-7. Hereto, MCF-7 cells were incubated for 16 hours with 10 μM of a test compound after which the number of death and living cells was determined. In total 28 compounds were tested for cell death. […] GGA was used as a control as well as non-treated MCF-7 cells. […] The findings indicate that GGA-like compounds which aggravate heart failure can induce programmed cell death in MCF-7 breast cancer cell-line.

[7] = test system: HSP25; assay: HSP25 mRNA (qPCR) in HL-1 cardiomyocytes after mild heat shock; format: cell-based, mouse; conditions: then compound 10 μM for 6 hours
Protocol: (§3) HL-1 cardiomyocytes were subjected to a mild heat shock of 44° C. for 10 minutes. After a recovery of 10 minutes (37 degrees 5% CO2), compounds were added in a final concentration of 10 μM (dissolved in DMSO, final concentration 0.1%). To control myocytes, 0.1% DMSO was added. After six hours the cells were lysed in RIPA buffer and used for Western blotting as described previously.^3, 10 Compounds were also screened for their ability to upregulate HSP gene expression. Hereto, HL-1 cardiomyocytes were first subjected to a mild heat shock which activates the Heat Shock Factor. After the mild heat shock, compound (10 μM) was added to the medium of HL-1 cardiomyocytes for 6 hours, followed by determination of HSP70, HSP25, HSP90 and HSP40 which are targets of the heat shock factor 1 (HSF1) transcription factor. In addition, we determined mRNA levels of the gene encoding the glucose-responsive protein 78 (Grp78) which is HSF1-independent.

[8] = test system: HSP40; assay: HSP40 mRNA (qPCR) in HL-1 cardiomyocytes after mild heat shock; format: cell-based, mouse; conditions: then compound 10 μM for 6 hours
Protocol: as §3

[9] = test system: glucose-responsive protein 78 (Grp78); assay: Grp78 mRNA (qPCR, HSF1-independent) in HL-1 cardiomyocytes; format: cell-based, mouse; set-up: key to HSP boosting HL-1 cardiomyocytes mRNA (qPCR) Grp78 Not HSF1: 0 = no induction HSP levels; + = 2-10-fold induction; ++ = 10-30-fold induction; +++ = > 30-fold induction; conditions: for HSP boosting HL-1 cardiomyocytes mRNA (qPCR) Grp78 Not HSF1: mild heat shock, then compound 10 μM for 6 hours
Protocol: as §3

[10] = test system: HSP90; assay: HSP90 mRNA (qPCR) in HL-1 cardiomyocytes after mild heat shock; format: cell-based, mouse; conditions: then compound 10 μM for 6 hours
Protocol: as §3

[11] = test system: HSP70, HSP25, HSP90 and HSP40; assay: Upregulation of HSP gene expression (HSF1 targets) in HL-1 cardiomyocytes; format: cell-based, mouse; conditions: HL-1, mild heat shock, 10 μM, 6 hours
Protocol: as §3

[12] = test system: HSP70; assay: HSP70 mRNA (qPCR) in HL-1 cardiomyocytes after mild heat shock; format: cell-based, mouse; conditions: then compound 10 μM for 6 hours
Protocol: as §3

| Structure (SMILES) | Cell Death MCF-7 cancer cells Death/living 100 μM [1] | Cell Death MCF-7 cancer cells HSP 70 [2] | induction of HSP70 expression in renal (MPT) cells [3] | Cell Death MCF-7 cancer cells HSP 27 [4] | HSP boosting HL-1 cardiomyocytes Protein HSP70 [5] | Cell Death MCF-7 cancer cells PARP [6] | HSP boosting HL-1 cardiomyocytes mRNA (qPCR) HSP 25 [7] | HSP boosting HL-1 cardiomyocytes mRNA (qPCR) HSP 40 [8] | HSP boosting HL-1 cardiomyocytes mRNA (qPCR) Grp78 Not HSF1 [9] | induction of mammalian HSP70 protein expression [5] | HSP boosting HL-1 cardiomyocytes mRNA (qPCR) HSP 90 [10] | upregulation of Grp78 mRNA ([9]; HL-1, mild heat shock, 10 μM, 6 hours) | induction of HSP gene expression [11] | HSP boosting HL-1 cardiomyocytes mRNA (qPCR) HSP 70 [12] |
| --- | --- | --- | --- | --- | --- | --- | --- | --- | --- | --- | --- | --- | --- | --- |
| CC(C)=CCC/C(C)=C/CCc1cc(C)[nH]n1 [Compound 32] | 0 | 0 | strong inducers | + (+ = P < 0.05) | + (+ = 2-10-fold induction) | 0 |  |  |  |  |  |  |  |  |
| CC(C)=CCC/C(C)=C/CN1C(=O)CCC1=O [Compound 47] |  |  | strong inducers |  |  |  |  |  |  |  |  |  |  |  |
| CC(C)=CCC/C(C)=C/CNC(=O)CN(C)C [Compound 49] | 0 | 0 | strong inducers | 0 | +++ (+++ = > 30-fold induction) | 0 | +++ (+++ = > 30-fold induction) | +++ (+++ = > 30-fold induction) | 0 | potent inducers | +++ (+++ = > 30-fold induction) |  |  |  |
| CCOC(=O)CC(=O)c1ccccc1O [Compound 60, Ethyl 3-(2-hydroxyphenyl)-3-oxopropanoate] |  |  |  |  |  |  |  |  |  | potent inducers |  | no upregulation | strong inducers |  |
| CCOC(=O)C(CC)C(=O)CC/C=C(\C)CCC=C(C)C (centres unmarked) [Compound 69] |  |  | strong inducers |  | 0 |  |  |  |  |  |  |  |  |  |
| CCOC(=O)CC(C(=O)CC/C=C(\C)CCC=C(C)C)C(=O)OCC (centres unmarked) [Compound 89] | 0 | 0 |  | 0 | + (+ = 2-10-fold induction) | 0 |  |  |  |  |  |  |  |  |
| CC(=O)N[C@@H](C)C(=O)NC/C=C(\C)CCC=C(C)C [Compound 95] |  |  | strong inducers |  | +++ (+++ = > 30-fold induction) |  | + (+ = 2-10-fold induction) | + (+ = 2-10-fold induction) | 0 | potent inducers | ++ (++ = 10-30-fold induction) |  |  |  |
| CCOC(=O)CC(=O)NC/C=C(\C)CCC=C(C)C [Compound 98] | 0 | 0 |  | ++ (++ = P < 0.01) | 0 | 0 |  |  |  |  |  |  |  |  |
| CCC(=O)N(C/C=C(\C)CCC=C(C)C)C(=O)CC [Compound 103] | 0 | 0 |  | 0 | 0 | 0 |  |  |  |  |  |  |  |  |
| CC(=O)OC/C=C(\C)CC/C=C(\C)COC1CCCCO1 (centres unmarked) [Compound 106] |  |  | strong inducers |  |  |  |  |  |  |  |  |  |  |  |
| CC(=O)CC/C=C(\C)CC/C=C(\C)CC/C=C(\C)CCC=C(C)C [GGA, (5E,9E,13E)-6,10,14,18-tetramethylnonadeca-5,9,13,17-tetraen-2-one, reference compound] | 0 | 0 |  | + (+ = P < 0.05) | ++ (++ = 10-30-fold induction) | 0 | ++ (++ = 10-30-fold induction) | + (+ = 2-10-fold induction) | 0 |  | ++ (++ = 10-30-fold induction) |  |  | + (+ = 2-10-fold induction) |
